The target of the experiment is T1, Human M4 (Homo sapiens, UniProt P08173).
T1 construct: expressed in transfected cells
T1 sequence (P08173 1-479): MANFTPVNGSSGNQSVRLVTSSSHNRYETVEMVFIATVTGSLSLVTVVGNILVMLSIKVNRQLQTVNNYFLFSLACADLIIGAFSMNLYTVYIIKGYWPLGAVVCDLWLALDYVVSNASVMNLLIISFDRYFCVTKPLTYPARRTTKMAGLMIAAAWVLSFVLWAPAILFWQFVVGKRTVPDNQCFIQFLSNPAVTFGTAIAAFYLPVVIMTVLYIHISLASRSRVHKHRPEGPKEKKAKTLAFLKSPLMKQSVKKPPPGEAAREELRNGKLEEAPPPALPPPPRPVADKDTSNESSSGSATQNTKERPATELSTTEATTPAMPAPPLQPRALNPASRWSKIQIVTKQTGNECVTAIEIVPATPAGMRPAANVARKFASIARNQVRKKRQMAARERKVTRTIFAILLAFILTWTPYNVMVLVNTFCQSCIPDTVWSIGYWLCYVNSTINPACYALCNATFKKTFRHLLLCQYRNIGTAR
Description: mAChR M4 cell-based functional assay (calcium flux, PAM mode). Conditions: hM4-Gqi5 CHO-K1 cells; for Emax at 30 µM: CHO-K1, % ACh maximum at 30 μM; for EC50: concentration-dependent increase in the EC20 acetylcholine response. As to the method:
Human and rat M4 cDNAs, along with the chimeric G protein Gqi5, were transfected into Chinese hamster ovary (CHO-K1) cells purchased from the American Type Culture Collection using Lipofectamine2000. hM4-Gqi5 cells were grown in Ham's F-12 medium containing 10% heat-inactivated fetal bovine serum (FBS), 20 mM HEPES, 50 μg/mL G418 sulfate, and 500 μg/mL Hygromycin B. rM4-Gqi5 cells were grown in DMEM containing 10% heat-inactivated FBS, 20 mM HEPES, 400 μg/mL G418 sulfate, and 500 μg/mL Hygromycin B.
For high throughput measurement of agonist-evoked increases in intracellular calcium, CHO-K1 cells stably expressing muscarinic receptors were plated in growth medium lacking G418 and hygromycin at 15,000 cells/20 μL/well in Greiner 384-well black-walled, tissue culture (TC)-treated, clear-bottom plates (VWR). Cells were incubated overnight at 37° C. and 5% CO2. The next day, cells were washed using an ELX 405 (BioTek) with assay buffer; the final volume was then aspirated to 20 μL. Next, 20 μL of a 2.3 μM stock of Fluo-4/acetoxymethyl ester (Invitrogen, Carlsbad, CA), prepared as a 2.3 mM stock in DMSO and mixed in a 1:1 ratio with 10% (w/v) Pluronic F-127 and diluted in assay buffer, was added to the wells and the cell plates were incubated for 50 min at 37° C. and 5% CO2. Dye was removed by washing with the ELX 405 and the final volume was aspirated to 20 μL. Compound master plates were formatted in an 11 point concentration-response curve (CRC) format (1:3 dilutions) in 100% DMSO with a starting concentration of 10 mM using a BRAVO liquid handler (Agilent). Test compound CRCs were then transferred to daughter plates (240 nL) using the Echo acoustic plate reformatter (Labcyte, Sunnyvale, CA) and then diluted into assay buffer (40 μL) to a 2× stock using a Thermo Fisher Combi (Thermo Fisher Scientific, Waltham, MA).
Calcium flux was measured using the Functional Drug Screening System (FDSS) 6000 or 7000 (Hamamatsu Corporation, Tokyo, Japan) as an increase in the fluorescent static ratio. Compounds were applied to cells (20 μL, 2×) using the automated system of the FDSS at 2-4 seconds into the protocol and the data were collected at 1 Hz. At 144 seconds, 10 μL of an EC20 concentration of the muscarinic receptor agonist acetylcholine was added (5×), followed by the addition of 12 μL of an EC80 concentration of acetylcholine at the 230 second time point (5×). Agonist activity was analyzed as a concentration-dependent increase in calcium mobilization upon compound addition. Positive allosteric modulator activity was analyzed as a concentration-dependent increase in the EC20 acetylcholine response. Antagonist activity was analyzed as a concentration-dependent decrease in the EC80 acetylcholine response. Concentration-response curves were generated using a four-parameter logistical equation in XLFit curve fitting software (IDBS, Bridgewater, NJ) for Excel (Microsoft, Redmond, WA) or Prism (GraphPad Software, Inc., San Diego, CA).
Compounds were synthesized as described above. Activity (EC50 and Emax) was determined in the mAChR M4 cell-based functional assay as described above and the data are shown in Table 2. The compound number corresponds to the compound numbers used in Examples 1 to 11 and Tables 1.

For the compound `[2H]C1([2H])Oc2ccc(OC3CCN(c4nn5c(=O)cc(C(F)F)nc5c(C)c4C)CC3)cc2OC1([2H])[2H]` [Compound 9, 2-(Difluoromethyl)-7-(4-((2,3-dihydrobenzo[b][1,4]dioxin-6-yl-2,2,3,3-d4)oxy)piperidin-1-yl)-8,9-dimethyl-4H-pyrimido[1,2-b]pyridazin-4-one], the Emax at 30 µM worked out at 96% and the EC50 came out at 28 nM.
As to `[2H]C1([2H])Oc2ccc(O[C@H]3CCN(c4nn5c(=O)ccnc5c(C)c4C)C[C@@H]3F)cc2OC1([2H])[2H]` [Compound 117, 7-((3S,4S)-4-((2,3-dihydrobenzo[b][1,4]dioxin-6-yl-2,2,3,3-d4)oxy)-3-fluoropiperidin-1-yl)-8,9-dimethyl-4H-pyrimido[1,2-b]pyridazin-4-one], the Emax at 30 µM is 93% and the EC50 turned out to be 326 nM.
As for `Cc1ccc(OC2CCN(c3nn4c(=O)cc(C(F)F)nc4c(C)c3C)CC2)cc1` [Compound 85, 2-(difluoromethyl)-8,9-dimethyl-7-(4-(p-tolyloxy)piperidin-1-yl)-4H-pyrimido[1,2-b]pyridazin-4-one], the maximum response (Emax) at 30 µM stood at 101% and the concentration giving a half-maximal response (EC50) turned out to be 385 nM.
Turning to `[2H]C1(Oc2ccc3c(c2)OC([2H])([2H])C([2H])([2H])O3)CCN(c2nn3c(=O)cc(CC4CCCC4)nc3c(C)c2C)CC1` [Compound 101, 2-(cyclopentylmethyl)-7-(4-((2,3-dihydrobenzo[b][1,4]dioxin-6-yl-2,2,3,3-d4)oxy)piperidin-1-yl-4-d)-8,9-dimethyl-4H-pyrimido[1,2-b]pyridazin-4-one], the maximal response (Emax) at 30 µM turned out to be 81% and the half-maximal effective concentration (EC50) came out at 1470 nM.
Take `Cc1cc(=O)n2nc(N3CCC(Oc4ccc5c(c4)C(=O)N(C)CC5)CC3)c(C)cc2n1` [Compound 73, 2,8-dimethyl-7-(4-((2-methyl-1-oxo-1,2,3,4-tetrahydroisoquinolin-7-yl)oxy)piperidin-1-yl)-4H-pyrimido[1,2-b]pyridazin-4-one]: the maximal response (Emax) at 30 µM came out at 85% and the EC50 is 2630 nM.
The matching figures for `[2H]C1([2H])Oc2ccc(OC3CCN(c4nn5c(=O)cc(CC)nc5c(C)c4C)CC3)cc2OC1([2H])[2H]` [Compound 100, 7-(4-((2,3-dihydrobenzo[b][1,4]dioxin-6-yl-2,2,3,3-d4)oxy)piperidin-1-yl)-2-ethyl-8,9-dimethyl-4H-pyrimido[1,2-b]pyridazin-4-one]: 89% and 52 nM.
For `[2H]C1([2H])Oc2ccc(O[C@H]3CCN(c4nn5c(=O)cc(COC)nc5c(C)c4C)C[C@@H]3F)cc2OC1([2H])[2H]` [Compound 120, 7-((3S,4S)-4-((2,3-dihydrobenzo[b][1,4]dioxin-6-yl-2,2,3,3-d4)oxy)-3-fluoropiperidin-1-yl)-2-(methoxymethyl)-8,9-dimethyl-4H-pyrimido[1,2-b]pyridazin-4-one] the same measures were 106% and 162 nM.
In the case of `Cc1cc2nccc(=O)n2nc1N1CC[C@@H](Oc2ccc3c(c2)OCCO3)[C@@H](F)C1` [Compound 34, 7-((3S,4R)-4-((2,3-dihydrobenzo[b][1,4]dioxin-6-yl)oxy)-3-fluoropiperidin-1-yl)-8-methyl-4H-pyrimido[1,2-b]pyridazin-4-one], the Emax at 30 µM turned out to be 116% and the EC50 came to 70 nM.
On to `[2H]C1(Oc2ccc3c(c2)OCCCO3)CCN(c2nn3c(=O)cc(C(F)F)nc3cc2C)CC1` [Compound 67, 2-(difluoromethyl)-7-(4-((3,4-dihydro-2H-benzo[b][1,4]dioxepin-7-yl)oxy)piperidin-1-yl-4-d)-8-methyl-4H-pyrimido[1,2-b]pyridazin-4-one], for which the Emax at 30 µM turned out to be 109% and the EC50 came out at 17 nM.
The matching figures for `Cc1cc2nccc(=O)n2nc1N1CC[C@@H](Oc2ccc3c(c2)OCCO3)C[C@H]1C` (stereo in doubt) [Compound 106, 7-((2R,4R)-4-((2,3-dihydrobenzo[b][1,4]dioxin-6-yl)oxy)-2-methylpiperidin-1-yl)-8-methyl-4H-pyrimido[1,2-b]pyridazin-4-one]: 81% and 818 nM.
As to `[2H]C1(Oc2ccc(C)cc2)CCN(c2nn3c(=O)ccnc3cc2C)CC1` [Compound 92, 8-methyl-7-(4-(p-tolyloxy)piperidin-1-yl-4-d)-4H-pyrimido[1,2-b]pyridazin-4-one], the Emax at 30 µM was found to be 89% and the EC50 was 632 nM.
As to `[2H]C1([2H])Oc2ccc(O[C@H]3CCN(c4nn5c(=O)ccnc5cc4C)C[C@@H]3F)cc2OC1([2H])[2H]` [Compound 42, 7-((3S,4S)-4-((2,3-dihydrobenzo[b][1,4]dioxin-6-yl-2,2,3,3-d4)oxy)-3-fluoropiperidin-1-yl)-8-methyl-4H-pyrimido[1,2-b]pyridazin-4-one], the Emax at 30 µM was determined as 105% and the EC50 is 52 nM.
As for `[2H]C1([2H])Oc2ccc(OC3CCN(c4nn5c(=O)cc(C)nc5cc4C)CC3)cc2OC1([2H])[2H]` [Compound 3, 7-(4-((2,3-Dihydrobenzo[b][1,4]dioxin-6-yl-2,2,3,3-d4)oxy)piperidin-1-yl)-2,8-dimethyl-4H-pyrimido[1,2-b]pyridazin-4-one], the maximal effect (Emax) at 30 µM was 86% and the EC50 stood at 30 nM.
Take `[2H]C1(Oc2ccc3c(c2)OCO3)CCN(c2nn3c(=O)cc(C(F)F)nc3cc2C)CC1` [Compound 66, 7-(4-(benzo[d][1,3]dioxol-5-yloxy)piperidin-1-yl-4-d)-2-(difluoromethyl)-8-methyl-4H-pyrimido[1,2-b]pyridazin-4-one]: the Emax at 30 µM amounted to 108% and the EC50 is 17 nM.
Take `[2H]C1(Oc2ccc3c(c2)OCCCO3)CCN(c2nn3c(=O)cc(C)nc3cc2C)CC1` [Compound 59, 7-(4-((3,4-dihydro-2H-benzo[b][1,4]dioxepin-7-yl)oxy)piperidin-1-yl-4-d)-2,8-dimethyl-4H-pyrimido[1,2-b]pyridazin-4-one]: the Emax at 30 µM amounted to 85% and the EC50 was found to be 59 nM.
As to `Cc1cc2nccc(=O)n2nc1N1CCC(Oc2ccc3c(c2)OCCO3)CC1` [Compound 26, 7-(4-((2,3-dihydrobenzo[b][1,4]dioxin-6-yl)oxy)piperidin-1-yl)-8-methyl-4H-pyrimido[1,2-b]pyridazin-4-one], the Emax at 30 µM came out at 84% and the concentration giving a half-maximal response (EC50) was 66 nM.
For `[2H]C1(Oc2ccc3c(c2)OCCO3)CCN(c2nn3c(=O)cc(C(F)(F)F)nc3cc2C)CC1` [Compound 49, 7-(4-((2,3-dihydrobenzo[b][1,4]dioxin-6-yl)oxy)piperidin-1-yl-4-d)-8-methyl-2-(trifluoromethyl)-4H-pyrimido[1,2-b]pyridazin-4-one] the same measures were 93% and 10 nM.
For `Cc1c(N2CCC(Oc3ccc4c(c3)OCCO4)CC2)nn2c(=O)cc(C(C)C)nc2c1C` [Compound 12, 7-(4-((2,3-Dihydrobenzo[b][1,4]dioxin-6-yl)oxy)piperidin-1-yl)-2-isopropyl-8,9-dimethyl-4H-pyrimido[1,2-b]pyridazin-4-one], the Emax at 30 µM turned out to be 103% and the EC50 was 59 nM.

The values above are taken from patent US11884676B2, “Substituted pyrimido[1,2-b]pyridazines as positive allosteric modulators of the muscarinic acetylcholine receptor M4” (Vanderbilt University, priority 2020, dated 2024).
